The source of these data is ChEMBL document CHEMBL1135949, “Pyrrolylquinoxalinediones carrying a piperazine residue represent highly potent and selective ligands to the homomeric kainate receptor GluR5” (Bioorg Med Chem Lett, 2002).

The structures appear in SMILES notation. pKi: −log10 of the molar value.

For experiment [1], the target named is T1, Glutamate receptor ionotropic, kainate 5 (Homo sapiens, UniProt Q16478).
T1 sequence (Q16478 whole entry): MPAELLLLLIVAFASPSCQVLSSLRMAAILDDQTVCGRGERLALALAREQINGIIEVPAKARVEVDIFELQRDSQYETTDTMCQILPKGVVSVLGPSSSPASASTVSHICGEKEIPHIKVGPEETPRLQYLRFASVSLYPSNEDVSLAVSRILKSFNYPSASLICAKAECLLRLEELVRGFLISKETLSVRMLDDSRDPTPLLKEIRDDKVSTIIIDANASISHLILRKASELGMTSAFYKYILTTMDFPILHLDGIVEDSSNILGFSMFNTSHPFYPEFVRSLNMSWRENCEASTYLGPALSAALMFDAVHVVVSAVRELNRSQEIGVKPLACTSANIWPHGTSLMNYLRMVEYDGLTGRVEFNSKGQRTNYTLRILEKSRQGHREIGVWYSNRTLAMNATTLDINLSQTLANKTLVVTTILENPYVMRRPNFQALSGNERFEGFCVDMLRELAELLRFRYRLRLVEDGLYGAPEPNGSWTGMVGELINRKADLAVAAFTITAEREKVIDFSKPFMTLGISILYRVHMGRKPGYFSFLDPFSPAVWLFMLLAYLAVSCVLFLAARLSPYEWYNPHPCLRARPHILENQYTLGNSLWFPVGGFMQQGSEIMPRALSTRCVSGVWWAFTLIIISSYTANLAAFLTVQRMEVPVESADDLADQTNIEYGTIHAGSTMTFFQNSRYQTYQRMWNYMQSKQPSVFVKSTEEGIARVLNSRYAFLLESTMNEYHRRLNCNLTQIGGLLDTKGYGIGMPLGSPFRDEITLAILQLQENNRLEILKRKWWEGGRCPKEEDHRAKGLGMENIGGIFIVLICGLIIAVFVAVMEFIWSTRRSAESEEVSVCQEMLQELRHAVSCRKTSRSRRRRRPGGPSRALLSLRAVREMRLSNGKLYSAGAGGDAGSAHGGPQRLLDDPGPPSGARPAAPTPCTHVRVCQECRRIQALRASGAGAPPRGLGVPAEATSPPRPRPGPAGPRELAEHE
The experiment can be described thus: Binding affinity towards Kai-2 using [3]H-kainate as the radioligand.

For experiment [2], the target named is Glutamate receptor ionotropic, kainate 2 (Homo sapiens, UniProt Q13002). The experiment in a line: Binding affinity for human GluR6 expressed in HEK293 cells using [3]H-kainate. The experiment is classed as cell-based.
Glutamate receptor ionotropic, kainate 2, sequence (Q13002 whole entry): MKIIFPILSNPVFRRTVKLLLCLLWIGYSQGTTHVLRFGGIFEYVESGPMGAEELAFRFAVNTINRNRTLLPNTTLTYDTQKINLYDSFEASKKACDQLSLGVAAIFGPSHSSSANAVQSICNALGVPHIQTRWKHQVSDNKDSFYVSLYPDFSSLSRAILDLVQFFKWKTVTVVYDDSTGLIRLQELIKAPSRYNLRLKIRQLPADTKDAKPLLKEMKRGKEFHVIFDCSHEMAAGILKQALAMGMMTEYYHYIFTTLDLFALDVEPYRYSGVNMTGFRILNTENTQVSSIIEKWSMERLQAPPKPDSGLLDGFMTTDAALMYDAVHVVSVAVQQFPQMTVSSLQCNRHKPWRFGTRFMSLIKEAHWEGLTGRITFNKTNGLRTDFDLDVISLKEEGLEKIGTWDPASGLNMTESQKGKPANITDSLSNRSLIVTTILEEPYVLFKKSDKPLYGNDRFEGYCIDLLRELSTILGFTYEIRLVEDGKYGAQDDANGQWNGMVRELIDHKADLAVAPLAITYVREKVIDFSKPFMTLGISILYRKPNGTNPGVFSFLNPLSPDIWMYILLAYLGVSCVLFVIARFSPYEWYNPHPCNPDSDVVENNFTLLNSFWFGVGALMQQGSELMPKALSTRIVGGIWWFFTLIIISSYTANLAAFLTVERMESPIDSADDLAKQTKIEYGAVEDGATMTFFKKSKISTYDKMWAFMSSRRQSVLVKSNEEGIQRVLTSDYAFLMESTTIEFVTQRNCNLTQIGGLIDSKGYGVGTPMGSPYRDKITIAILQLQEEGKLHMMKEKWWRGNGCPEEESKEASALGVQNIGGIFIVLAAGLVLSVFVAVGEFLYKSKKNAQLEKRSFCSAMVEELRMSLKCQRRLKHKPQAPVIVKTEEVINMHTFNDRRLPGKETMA
For experiment [3], the target named is Glutamate receptor ionotropic, kainate 1 (Homo sapiens, UniProt P39086). The experiment can be described thus: Binding affinity towards cloned human GluR5 subunit stably expressed in cultured HEK293 cells using [3]H-kainate as radioligand. The class given is cell-based.
Glutamate receptor ionotropic, kainate 1, sequence (P39086 whole entry): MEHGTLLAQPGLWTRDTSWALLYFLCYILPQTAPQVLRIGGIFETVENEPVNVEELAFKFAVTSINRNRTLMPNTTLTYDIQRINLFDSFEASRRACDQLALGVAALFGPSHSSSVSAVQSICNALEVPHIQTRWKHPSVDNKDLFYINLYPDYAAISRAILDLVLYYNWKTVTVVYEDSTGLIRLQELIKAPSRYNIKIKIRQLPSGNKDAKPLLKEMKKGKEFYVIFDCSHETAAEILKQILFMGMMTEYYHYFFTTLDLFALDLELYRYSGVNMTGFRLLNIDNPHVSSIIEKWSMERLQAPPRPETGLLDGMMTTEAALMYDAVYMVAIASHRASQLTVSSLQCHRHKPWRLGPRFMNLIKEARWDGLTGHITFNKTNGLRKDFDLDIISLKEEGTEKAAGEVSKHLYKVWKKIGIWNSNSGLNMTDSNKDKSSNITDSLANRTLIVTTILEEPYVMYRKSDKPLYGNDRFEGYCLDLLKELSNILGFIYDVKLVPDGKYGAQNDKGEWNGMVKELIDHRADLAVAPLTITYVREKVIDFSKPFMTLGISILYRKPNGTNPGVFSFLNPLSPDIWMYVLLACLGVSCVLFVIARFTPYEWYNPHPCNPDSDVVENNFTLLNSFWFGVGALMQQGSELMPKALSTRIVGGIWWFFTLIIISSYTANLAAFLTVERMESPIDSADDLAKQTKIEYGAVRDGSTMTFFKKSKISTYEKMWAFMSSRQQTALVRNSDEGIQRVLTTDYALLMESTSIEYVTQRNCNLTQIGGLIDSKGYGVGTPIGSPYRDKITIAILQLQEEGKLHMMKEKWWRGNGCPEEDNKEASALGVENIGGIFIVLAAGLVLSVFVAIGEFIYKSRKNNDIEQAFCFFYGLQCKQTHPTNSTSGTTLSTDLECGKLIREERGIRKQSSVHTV
For experiment [4], the target named is T1, Glutamate receptor ionotropic, kainate 5. The experiment can be described thus: Binding affinity towards cloned human Kai-2 subunit stably expressed in cultured HEK293 cells using [3]H-kainate as radioligand. The experiment is classed as cell-based.

In the case of `NCc1ccn(-c2cc3c(cc2[N+](=O)[O-])[nH]c(=O)c(=O)n3CC(=O)O)c1`, the pKi (as a rule, −log10 of the Ki, conventionally taken in molar units) in experiment [1] is 5.01; in experiment [2] it was 5.82.
In the case of `O=C(O)Cn1c(=O)c(=O)[nH]c2cc(C(F)(F)F)c(-n3ccc(CNC(=O)Nc4ccc([N+](=O)[O-])cc4)c3)cc21`, the figures for the pKi in experiment [1], in experiment [2] and in experiment [3] were 4.92, 6.21 and 7.00, respectively.
As for `O=C(O)Cn1c(=O)c(=O)[nH]c2cc([N+](=O)[O-])c(-n3cccc3)cc21`, the negative-log Ki (pKi) in experiment [4] is 5.89; in experiment [2], 5.41.
Take `O=C(O)Cn1c(=O)c(=O)[nH]c2cc([N+](=O)[O-])c(-n3ccc(C(=O)O)c3)cc21`: the negative logarithm of the Ki (pKi) in experiment [1] is 4.96; in experiment [2] it was 5.24; in experiment [3], 5.85.
On to `O=C(O)Cn1c(=O)c(=O)[nH]c2cc([N+](=O)[O-])c(-n3ccc(CN4CCCCC4)c3)cc21`, for which the values for the negative-log Ki (pKi) in experiment [4] and in experiment [2] were less than 4.52 and 4.55, respectively.
For the molecule `O=C(O)CCn1c(=O)c(=O)[nH]c2cc([N+](=O)[O-])c(-n3cccc3)cc21`, the negative-log Ki (pKi) is 4.60 in experiment [4], 5.92 in experiment [2] and 5.62 in experiment [3].
Take `O=C(O)Cn1c(=O)c(=O)[nH]c2cc([N+](=O)[O-])c(-n3ccc(CN4CCC(c5ccccc5)CC4)c3)cc21`: the negative logarithm of the Ki (pKi) in experiment [4] is 4.74; in experiment [2] it was 5.44.
Consider `O=C(O)Cn1c(=O)c(=O)[nH]c2cc([N+](=O)[O-])c(-n3ccc(CNCCCc4ccccc4)c3)cc21`, for which the pKi in experiment [4] was 4.70; in experiment [2] it was 5.21.
Consider `O=C(O)Cn1c(=O)c(=O)[nH]c2cc([N+](=O)[O-])c(-n3ccc(CN4CCN(Cc5ccccc5)CC4)c3)cc21`, for which the pKi in experiment [4] is 4.70; in experiment [2], 5.39.
On the same counts, the results for `CN(Cc1ccccc1)Cc1ccn(-c2cc3c(cc2[N+](=O)[O-])[nH]c(=O)c(=O)n3CCC(=O)O)c1` are less than 4.52 and 4.64.
For `O=C(O)Cn1c(=O)c(=O)[nH]c2cc([N+](=O)[O-])c(-n3ccc(CN4CCN(CCc5ccccc5)CC4)c3)cc21`, the results for the negative-log Ki (pKi) in experiment [4] and in experiment [2] were 4.60 and 5.85, respectively.
